19 compounds from the supplement of paper PMC8967900 can be followed below.

Each structure is given as a SMILES string.
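Also: ALL cell lines in 384-well plates, five doses spanning 10,000-fold, each plate scaled between vehicle and 100 µmol/L benzalkonium chloride controls, sDSS an adapted area-under-curve metric.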

The first test has as its system MOLT-14. Description: selective drug sensitivity score (sDSS, relative to normal bone marrow) (sDSS (score)); higher = more potent and effective on the cell line relative to normal bone marrow cells. To be noted: 72 h.
Turning to `COCCNCc1ccc(-c2cc3nccc(Oc4ccc(NC(=S)NC(=O)Cc5ccc(F)cc5)cc4F)c3s2)nc1` [Glesatinib] (top concentration 2500 nM), the “selective drug sensitivity score” value worked out at 0.54.

For `Cn1nccc1Nc1nccc(-c2ccn([C@H](CO)c3ccc(Cl)c(F)c3)c(=O)c2)n1` [Ravoxertinib] (top concentration 10000 nM), the “selective drug sensitivity score” value is 0.1.

Turning to `CC1=NN(c2ccc(C(=O)O)cc2)C(=O)C1=Cc1ccc(-c2cc(C)c(C)cc2[N+](=O)[O-])o1` [C646] (top concentration 25000 nM), the “selective drug sensitivity score” value was 3.84.

In the case of `CC(C)c1cc(C(=O)N2Cc3ccc(CN4CCN(C)CC4)cc3C2)c(O)cc1O` [Onalespib] (top concentration 2500 nM), the “selective drug sensitivity score” value was 6.02.

For `CCN1C(=O)CNc2ncc(-c3ccc(-c4nc[nH]n4)nc3C)nc21` [CC-115] (top concentration 10000 nM), the “selective drug sensitivity score” value stood at 1.24.

On to `COc1cc(N2CCC(N3CCN(C)CC3)CC2)ccc1Nc1ncc(Cl)c(Nc2ccccc2P(C)(C)=O)n1` [Brigatinib] (top concentration 1000 nM), for which the “selective drug sensitivity score” value worked out at 3.16.

Regarding `CN1CCN(c2nc(C3=C(c4c[nH]c5ccccc45)C(=O)NC3=O)c3ccccc3n2)CC1` [Sotrastaurin] (top concentration 10000 nM), the “selective drug sensitivity score” value was -2.

With `CCN(CC)Cc1ccc2cc(COC(=O)Nc3ccc(C(=O)NO)cc3)ccc2c1` [Givinostat] (top concentration 1000 nM), the “selective drug sensitivity score” value came to 6.8.

As for `CNC(=O)c1cc(Oc2ccc(NC(=O)Nc3ccc(Cl)c(C(F)(F)F)c3)cc2)ccn1` [Sorafenib] (top concentration 1000 nM), the “selective drug sensitivity score” value was 0.

For `COc1ccc(S(=O)(=O)Nc2cccnc2Nc2ccc(O)cc2)cc1` [ABT-751] (top concentration 10000 nM), the “selective drug sensitivity score” value stood at 11.9.

In a further test the test system is MOLT-16. The test is described as above. To be noted: 72 h.
As to `Cc1cc(Nc2ncc(Cl)c(Nc3ccccc3S(=O)(=O)C(C)C)n2)c(OC(C)C)cc1C1CCNCC1` [Ceritinib] (top concentration 2500 nM), the “selective drug sensitivity score” value was -3.44.

Take `Cc1nc(Nc2ncc(C(=O)Nc3c(C)cccc3Cl)s2)cc(N2CCN(CCO)CC2)n1` [Dasatinib] (top concentration 1000 nM): the “selective drug sensitivity score” value was -2.8.

For `N[C@@H]1CCCN(c2c(/C=C3\SC(=O)NC3=O)cccc2-c2ccccc2)C1` [AZD1208] (top concentration 10000 nM), the “selective drug sensitivity score” value is -4.4.

Consider `CC(C)C[C@H](NC(=O)CNC(=O)c1cc(Cl)ccc1Cl)B(O)O` [Ixazomib] (top concentration 1000 nM), for which the “selective drug sensitivity score” value came to 7.06.

As for `C=CC(=O)N1CCC[C@@H](n2nc(-c3ccc(Oc4ccccc4)cc3)c3c(N)ncnc32)C1` [Ibrutinib] (top concentration 1000 nM), the “selective drug sensitivity score” value worked out at 2.

As to `Cn1cnc2c(F)c(Nc3ccc(Br)cc3F)c(C(=O)NOCCO)cc21` [Binimetinib] (top concentration 1000 nM), the “selective drug sensitivity score” value was -0.42.

Consider `COc1cc(Nc2ncc(F)c(Nc3ccc4c(n3)N(COP(=O)(O)O)C(=O)C(C)(C)O4)n2)cc(OC)c1OC` [Fostamatinib] (top concentration 2500 nM), for which the “selective drug sensitivity score” value is -2.84.

Regarding `COc1cc2c(Oc3ccc(NC(=O)C4(C(=O)Nc5ccc(F)cc5)CC4)cc3F)ccnc2cc1OCCCN1CCOCC1` [Foretinib] (top concentration 1000 nM), the “selective drug sensitivity score” value was 0.24.

For `Sc1ncnc2nc[nH]c12` [Mercaptopurine] (top concentration 10000 nM), the “selective drug sensitivity score” value came out at 16.9.

`COCCNCc1ccc(-c2cc3nccc(Oc4ccc(NC(=S)NC(=O)Cc5ccc(F)cc5)cc4F)c3s2)nc1` [Glesatinib] (top concentration 2500 nM): the “selective drug sensitivity score” value was -1.96.

Turning to `Cn1nccc1Nc1nccc(-c2ccn([C@H](CO)c3ccc(Cl)c(F)c3)c(=O)c2)n1` [Ravoxertinib] (top concentration 10000 nM), the “selective drug sensitivity score” value was 4.

Turning to `CC1=NN(c2ccc(C(=O)O)cc2)C(=O)C1=Cc1ccc(-c2cc(C)c(C)cc2[N+](=O)[O-])o1` [C646] (top concentration 25000 nM), the “selective drug sensitivity score” value was 4.84.

In the case of `CC(C)c1cc(C(=O)N2Cc3ccc(CN4CCN(C)CC4)cc3C2)c(O)cc1O` [Onalespib] (top concentration 2500 nM), the “selective drug sensitivity score” value was 7.42.

With `CCN1C(=O)CNc2ncc(-c3ccc(-c4nc[nH]n4)nc3C)nc21` [CC-115] (top concentration 10000 nM), the “selective drug sensitivity score” value came to 4.74.

For the compound `COc1cc(N2CCC(N3CCN(C)CC3)CC2)ccc1Nc1ncc(Cl)c(Nc2ccccc2P(C)(C)=O)n1` [Brigatinib] (top concentration 1000 nM), the “selective drug sensitivity score” value was -3.34.

For `CN1CCN(c2nc(C3=C(c4c[nH]c5ccccc45)C(=O)NC3=O)c3ccccc3n2)CC1` [Sotrastaurin] (top concentration 10000 nM), the “selective drug sensitivity score” value was 4.4.

On to `CCN(CC)Cc1ccc2cc(COC(=O)Nc3ccc(C(=O)NO)cc3)ccc2c1` [Givinostat] (top concentration 1000 nM), for which the “selective drug sensitivity score” value worked out at 5.1.

On to `CNC(=O)c1cc(Oc2ccc(NC(=O)Nc3ccc(Cl)c(C(F)(F)F)c3)cc2)ccn1` [Sorafenib] (top concentration 1000 nM), for which the “selective drug sensitivity score” value amounted to 0.

For `COc1ccc(S(=O)(=O)Nc2cccnc2Nc2ccc(O)cc2)cc1` [ABT-751] (top concentration 10000 nM), the “selective drug sensitivity score” value came out at 12.6.

Another test has as its system NALM-6. The test is described as above. The note with it: 72 h.
Consider `Cc1cc(Nc2ncc(Cl)c(Nc3ccccc3S(=O)(=O)C(C)C)n2)c(OC(C)C)cc1C1CCNCC1` [Ceritinib] (top concentration 2500 nM), for which the “selective drug sensitivity score” value is -0.74.

`Cc1nc(Nc2ncc(C(=O)Nc3c(C)cccc3Cl)s2)cc(N2CCN(CCO)CC2)n1` [Dasatinib] (top concentration 1000 nM): the “selective drug sensitivity score” value came out at 3.3.

On to `N[C@@H]1CCCN(c2c(/C=C3\SC(=O)NC3=O)cccc2-c2ccccc2)C1` [AZD1208] (top concentration 10000 nM), for which the “selective drug sensitivity score” value is -4.4.

As for `CC(C)C[C@H](NC(=O)CNC(=O)c1cc(Cl)ccc1Cl)B(O)O` [Ixazomib] (top concentration 1000 nM), the “selective drug sensitivity score” value is 6.66.

On to `C=CC(=O)N1CCC[C@@H](n2nc(-c3ccc(Oc4ccccc4)cc3)c3c(N)ncnc32)C1` [Ibrutinib] (top concentration 1000 nM), for which the “selective drug sensitivity score” value was 2.4.

With `Cn1cnc2c(F)c(Nc3ccc(Br)cc3F)c(C(=O)NOCCO)cc21` [Binimetinib] (top concentration 1000 nM), the “selective drug sensitivity score” value is 5.78.

Regarding `COc1cc(Nc2ncc(F)c(Nc3ccc4c(n3)N(COP(=O)(O)O)C(=O)C(C)(C)O4)n2)cc(OC)c1OC` [Fostamatinib] (top concentration 2500 nM), the “selective drug sensitivity score” value was determined as 2.96.

As to `COc1cc2c(Oc3ccc(NC(=O)C4(C(=O)Nc5ccc(F)cc5)CC4)cc3F)ccnc2cc1OCCCN1CCOCC1` [Foretinib] (top concentration 1000 nM), the “selective drug sensitivity score” value is 0.74.

In the case of `Sc1ncnc2nc[nH]c12` [Mercaptopurine] (top concentration 10000 nM), the “selective drug sensitivity score” value amounted to 9.1.

Regarding `COCCNCc1ccc(-c2cc3nccc(Oc4ccc(NC(=S)NC(=O)Cc5ccc(F)cc5)cc4F)c3s2)nc1` [Glesatinib] (top concentration 2500 nM), the “selective drug sensitivity score” value is -1.96.

Regarding `Cn1nccc1Nc1nccc(-c2ccn([C@H](CO)c3ccc(Cl)c(F)c3)c(=O)c2)n1` [Ravoxertinib] (top concentration 10000 nM), the “selective drug sensitivity score” value worked out at 4.

As for `CC1=NN(c2ccc(C(=O)O)cc2)C(=O)C1=Cc1ccc(-c2cc(C)c(C)cc2[N+](=O)[O-])o1` [C646] (top concentration 25000 nM), the “selective drug sensitivity score” value is -2.06.

Turning to `CC(C)c1cc(C(=O)N2Cc3ccc(CN4CCN(C)CC4)cc3C2)c(O)cc1O` [Onalespib] (top concentration 2500 nM), the “selective drug sensitivity score” value is 5.52.

In the case of `CCN1C(=O)CNc2ncc(-c3ccc(-c4nc[nH]n4)nc3C)nc21` [CC-115] (top concentration 10000 nM), the “selective drug sensitivity score” value was determined as 1.24.

As to `COc1cc(N2CCC(N3CCN(C)CC3)CC2)ccc1Nc1ncc(Cl)c(Nc2ccccc2P(C)(C)=O)n1` [Brigatinib] (top concentration 1000 nM), the “selective drug sensitivity score” value worked out at 0.26.

Turning to `CN1CCN(c2nc(C3=C(c4c[nH]c5ccccc45)C(=O)NC3=O)c3ccccc3n2)CC1` [Sotrastaurin] (top concentration 10000 nM), the “selective drug sensitivity score” value was found to be 0.8.

In the case of `CCN(CC)Cc1ccc2cc(COC(=O)Nc3ccc(C(=O)NO)cc3)ccc2c1` [Givinostat] (top concentration 1000 nM), the “selective drug sensitivity score” value is 1.2.

In the case of `CNC(=O)c1cc(Oc2ccc(NC(=O)Nc3ccc(Cl)c(C(F)(F)F)c3)cc2)ccn1` [Sorafenib] (top concentration 1000 nM), the “selective drug sensitivity score” value came out at 0.2.

For the compound `COc1ccc(S(=O)(=O)Nc2cccnc2Nc2ccc(O)cc2)cc1` [ABT-751] (top concentration 10000 nM), the “selective drug sensitivity score” value is 10.7.
